No end group written: not given here.
Assays:
HMEC-1 cells = assay: Endothelial cell migration by time lapse imaging
Procedure: Microscopy. To assay migration, HMEC-1 cells were treated with various concentrations of either PRO polypeptide or mutant peptide prior to plating. Cells were plated on coverslips coated with about 2 μg/ml of fibronectin (FN). Dishes containing coverslips were prepared as described by Kiosses et al., and maintained at a temperature of about 37° C., under an atmosphere containing about 5% carbon dioxide as described by Schwartz, J. Cell Biol., 1993, 120:1003–1010. The cells were viewed with a Nikon DiaPhot Microscope equipped with a SenSys cooled CCD video camera linked to a Silicon Graphics workstation running the Inovision ISEE software program. At the end of the experiment, images of each cell were outlined and the centroid (cell center) calculated. Displacement of the centroid was then used to determine movement of the cell over time. Statistical analysis was performed using Microsoft EXCEL statistics software. Approximately 50 cells were filmed and tracked per experiment, with at least 3 independent experiments for both the PRO and the mutant peptide. Results were expressed as means±standard error of the mean. The Students t-test was used to determine whether the observed differences were statistically significant (p=0.05).

endothelial cells = assay: Contractility on flexible silicone rubber substrates (wrinkle assay); format: cell-based; conditions: about 10 μM, FIG. 4
Text: Contractility. To visualize cell contractility, flexible rubber substrates were generated as described by Bussolino et al., J. Biol. Chem., 1989, 264:18284–18287. Briefly, silicone rubber (polydimethylsiloxane), having a viscosity of about 10000 centistokes (Dow Corning Co.) was applied to the coverslip at the bottom of 35 mm tissue culture dishes and coated with a thin layer of gold-palladium using a Hummer VI sputter coater, which polymerized a thin layer of silicon rubber. The surface was additionally coated with about 2 μg/ml of fibronectin (FN). Treated and un-treated endothelial cells were plated on the rubber substrate and allowed to adhere. Cells that had wrinkled the substrate beneath were visualized for about 4 hours and then scored by time-lapse phase contrast microscopy. Following this period, the cells were treated with Cytochalasin D (about 1 μg/ml) (Molecular Probes) to release all wrinkles that were due to actin-dependent cell tension.
To examine effects on contractility, cells were plated on elastic substrata, as described above, that can be pulled into wrinkles by cell-generated forces.

[1] = test system: chorioallantoic membrane (CAM) of chick embryos; assay: Chick CAM in vivo angiogenesis assay (bFGF-induced); conditions: bFGF filters, examined 3 days later, compared to untreated filters, FIG. 6
Procedure: Chick Cam Assays. In vivo angiogenesis assays were performed essentially as previously described by Brooks, et al., Cell, 1994, 79:1157–1164, the relevant disclosures of which are incorporated herein by reference. Filter discs saturated with 1.0 ug/ml bFGF were placed on the chorioallantoic membranes (CAMs) of 10-day-old chicken embryos, immediately followed by daily topical addition of either a PRO inhibitory peptide (20 μgs) or a control peptide ([…]) in 20 μl of fibroblast growth medium (FGM). After 72 hours, the filter discs and associated CAM tissue were harvested and quantified. Angiogenesis was assessed as the number of visible blood vessel branch points within the defined area of the filter discs. At least 20 CAMs were used for each treatment.
New blood vessels invade the filter dishes within 2–5 days, and angiogenesis can be readily detected. Filters without any additions, with control or with the PRO compound of Example 1 were implanted and examined 3 days later.

Nck = target: T1, Nck (Homo sapiens, UniProt P16333); assay: Affinity chromatography of endothelial cell extracts on peptide-agarose, western blot with anti-Nck; format: binding; conditions: detergent extracts of human endothelial cells
T1 construct: endogenous in cells; host or cells: human endothelial cells (cell type for this assay not further specified)
Procedure: Affinity Chromatography. PRO or control peptides containing an N-terminal cysteine were dissolved in about 1 ml of coupling buffer (50 mM tris pH 8.0, 5 mM EDTA) and about 0.5 ml at about 3 mg/ml peptide added to about 2 ml of activated thiol-Sepharose (Pharmacia). Samples were incubated at a temperature of about 4° C. overnight with 1% β-mercaptoethanol added to block unreacted sites. Beads were rinsed and stored at a temperature of about 4° C. Endothelial cell cultures in 15 cm dishes were extracted in about 1.0 ml of cold (about 4° C.), lysis buffer (20 mM pH 7.4 sodium phosphate, 100 mM NaCl, 1% Triton X-100, 10 mM NaF, 2 mM EDTA, 1 mM sodium orthovanadate, 1 mM PMSF, 10 μg/ml each of leupeptin and aprotinin). The extracts were centrifuged for about 10 minutes at top speed in a microfuge and the supernatants were then removed. A 0.5 ml sample of each extract was incubated with about 10 μl of packed beads for about 1 hour, with rotation at a temperature of about 4° C. The beads were rinsed with lysis buffer (about 4×0.5 ml) and dissolved in SDS sample buffer (about 0.04 ml). Samples were analyzed by SDS PAGE on 10% gels and immunoblotting with anti-NCK (Santa Cruz) and HRP-protein A as secondary, and then were developed and detected using enhanced chemiluminescence (ECL kit, Amersham). […]

[2] = test system: Human umbilical vein endothelial cells (HUVECs); assay: In vitro tube formation assay in 3-dimensional matrix; format: cell-based; conditions: about 48 hours
Text: Formation of Three-dimensional Collagen Gels. Collagen gels were formed by mixing ice-cold gelation solution (10× M199, H2O, 0.53 mol/L NaHCO3, 200 mmol/L L-glutamine, type I collagen, 0.1 mol/L NaOH; 100:27.7:50:10:750:62.5 by volume) with cells in 1×-basal medium at a concentration of about 3×10^6 cells/ml at a ratio of about 4 volumes of gelation solution to about 1 volume of cells by the method of Yang et al. Am. J. Pathol., 1999, 155:[…] (hereinafter “Yang et al.”). The gels were allowed to form by incubation in a CO2-free incubator at a temperature of about 37° C. for about 30–60 minutes. […]
Quantification of Tube Formation. […] The total length of each tube or the long axis of single cells or groups of adjacent cells was measured, and the raw data was imported into a Microsoft Excel spread sheet. The mean tube length was determined for each well, followed by determination of the mean data and SEM for each experimental group.
As an initial test of the PRO effect on endothelial cell behavior in 3-dimensional matrices, in vitro tube formation assays in matrigel were carried out. […] Tube formation was quantitated by determining the length of endothelial cell tubes.

Substance	Endothelial cell migration rate (HMEC-1 cells; about 10 μM peptide, time lapse imaging, FIG. 3A)	Cell contractility (wrinkles of elastic substratum) (endothelial cells)	Angiogenesis in CAM (vascular branch points) [1]	Binding of Nck from endothelial cell lysates (Nck)	Migration rates over the time course (argues against toxicity) (HMEC-1 cells; FIG. 3B)	Cell number [2]	Morphology of individual cells [2]
SEQ ID NO: 5: control peptide in which the first two prolines of SEQ ID NO: 4 were replaced by the amino acids A and G (YGRKKRRQRRRGKAGAPPMRNTSTM; fusion protein fragment)	no significant effect on migration	had no effect	essentially no effect	no detectable Nck was bound	–	–	–
YGRKKRRQRRRGKPPAPPMRNTSTM [SEQ ID NO: 4]	–	–	–	–	essentially constant	nor was cell number greatly altered	not noticeably perturbed
